Patent US20140315972A1, “RS)-2-(2-oxo-4-phenylpyrrolidin-1-yl)acetamide compound having modulatory activity with a commensurate effect, pharmaceutical substance (variants) and its application, composition (variants) thereof” (priority 2011, published 2014)
Where “and” joins values, the source holds several entries; their conditions need not be identical. Identical values can stand only once. Marks after values point to notes of the source that are not given here.

What was measured:
cAMP = cAMP level in functional dysmenorrhea patients; format: in vivo, human; details: for cAMP level / cAMP level, change in % (vs background dysmenorrhea): human plasma, primary dysmenorrhoea, first phase of the cycle
Method: Investigation of the effect of Phenotropil in amenorrhea and functional dysmenorrhea was conducted on groups of patients aged 14-27 years. The first group (20-27 years) diagnosed with schizophrenia, was on the maintenance neuroleptic therapy and had menstrual cycle irregularities in the form of amenorrhea (for more than 6 months). Of those, 4 had amenorrhea of not established nature, observed also prior to the pronounced primary manifestation of mental disorder, 6 patients had amenorrhea that developed during treatment with neuroleptics. Phenotropil, tablets was administered in doses of 100 mg and 200 mg per day as part of a complex antipsychotic therapy as a corrector of psychogenic side effects of neuroleptics. The dose was selected based on the individual and clinical features of the patients. The duration of Phenotropil therapy was 3 months. Two groups (14-18 years) with functional dysmenorrhea and manifestations of pronounced spastic symptoms were studied. Duration of the Phenotropil monotherapy (50 and 100 mg per day) was one month followed by administration of the drug at one-week courses as a preventive agent. Patients with functional dysmenorrhea were investigated for cAMP level in comparison with the norm control group. The cAMP level was determined using the standard kits, by the method based on the competition with the labeled cyclic 3′,5-adenosine monophosphate in the level of binding with […].

MDA (malondialdehyde) = assay: Plasma TBA-MDA under negative stress (Ns, Ds); format: in vivo, rats; details: for km % vs experimental control (saline): Ds seven days + 200 mg/kg, listed as Phenotropil
[1] = Body weight in obese rats, 1 month intragastric course; format: in vivo; details: for Body weight (%): change vs control (dist. water) = 100
Method: Investigation of the effect of Phenotropil on body weight at course intragastric administration for 1 month was performed at doses of 25, 50, 100, 200 and 300 mg/kg/day in white outbred rats of both sexes with obvious signs of obesity (380-430 g) without changes in diet and behavior. Each animal was placed in a standard single cell. The body weight, the amount of water and food consumed per day were recorded.

women = assay: Skin aging, vessels and joints, topical solution and creams; format: in vivo, human; details: for Efficacy in % relative to baseline control (skin aging) / Efficacy in % (skin aging) / Efficacy expressed in % (age-related changes of blood vessels and joints) / Efficacy expressed in % (skin aging): humans, topical course; for Efficacy in % (skin aging): baseline control = 100.0; for Efficacy expressed in % (age-related changes of blood vessels and joints) / Efficacy expressed in % (skin aging): baseline control = 100
Method: Example 24 presents the results of research of Phenotropil as parapharmaceutic—cosmeceutical agents in women (age 53-60 years) and as a standard solution. The 0.1% water solution (distilled water) of Phenotropil and placebo was prepared; for convenience of preparing therapeutic cream formulation, the standard composition of cream base was used, or actual creams “Vecher”, “Lux” and “Gerantol” manufactured by “Svoboda” (Russia) were used as the base, with 100, 200, 300 mg of Phenotropil per 100 g of finished compositions to prepare a cosmeceutical agent. The cosmeceutical formulations were prepared with the powder of Compound 1 sifted and well ground in a mortar.
At baseline examination, main indicators of the skin condition of the hands and face in the groups were recorded, integral index for aggregate characteristics was calculated (dryness, wrinkling, superficial vascular fascicles, the intensity of subcutaneous vascular pattern, pigmentation—the intensity of color, the number of pigment spots and their total area). Preliminarily, each subject was tested for allergic skin reaction with the most concentrated formulation. No allergic reactions have been identified. In one group, only solution of Phenotropil was used in the morning and evening, applying a small amount (like a regular lotion) of the solution on cosmetic cotton pads and wiping the face and hands. In the other groups, this procedure was carried out before applying the Phenotropil-containing cream. The results of the baseline evaluation in each group were taken for 100.0%.

mice = assay: Haloperidol-induced catalepsy; format: in vivo; details: for decrease of catalepsy severity vs control: 300 mg/kg; for Catalepsy: mice
Method: Duration of catalepsy was measured in seconds, after 60, 120 and 180 minutes after the drug administration. Phenotropil was administered intraperitoneally at doses of 50, 100 and 300 mg/kg 15 minutes after haloperidol 0.5 mg/kg. Haloperidol induced catalepsy growing over time. […] At a dose of 50 mg/kg, duration of the catalepsy after 180 min was only 4.8 seconds as compared to controls (63.4 seconds). […] Phenotropil markedly counteracts haloperidol-induced catalepsy, indicating its antiparkinsonian activity.

[2] = Plasma electrolyte balance at course administration; format: in vivo; details: rats
[3] = August rats, single Ns-exposure + 200 mg/kg
[4] = Wistar rats, single Ns-exposure + 200 mg/kg
[5] = 4-week administration 300 mg/kg

NC(=O)CN1CC(c2ccccc2)CC1=O (racemic) [Compound 1, (RS)-2-(2-oxo-4-phenylpyrrolidine-1-yl)acetamide]
effect of course use on serum cAMP (cAMP; functional dysmenorrhoea, monotherapy 50 and 100 mg per day, 30 days): restored the functional norm of cAMP indicators | cAMP level (cAMP; dose 50 mg): 14.35 ± 0.87 nmol/L | cAMP level, change in % (vs background dysmenorrhea) (cAMP; dose 50 mg): −32% | cAMP level (cAMP; dose 100 mg): 12.77 ± 1.24 nmol/L | cAMP level, change in % (vs background dysmenorrhea) (cAMP; dose 100 mg): −39% | Optical density of the samples vs control (MDA (malondialdehyde); August rats, 200 mg/kg single, no Ns): +188.4 * % | km % vs outbred group (MDA (malondialdehyde); August rats, 200 mg/kg, normal conditions): 0% | increase of plasma MDA concentration vs baseline control (MDA (malondialdehyde); August rats, exposure to Ns): 2.2 times | plasma MDA higher than with Phenotropil without Ns (MDA (malondialdehyde); August rats, exposure to Ns): 17.0% | MDA content vs control (MDA (malondialdehyde); [3]): +223.0 * % | Optical density of the samples vs control (MDA (malondialdehyde); [3]): +220.3 * % | km % vs outbred group (MDA (malondialdehyde); August rats, three-time Ns + 200 mg/kg): +27.8% * | Optical density of the samples vs control (MDA (malondialdehyde); Wistar rats, 200 mg/kg single, no Ns): +66.5 * % | km % vs outbred group (MDA (malondialdehyde); Wistar rats, 200 mg/kg, normal conditions): 0% | km % vs experimental control (saline) (MDA (malondialdehyde); Wistar rats, 200 mg/kg): −65.6% and −65.6 *** % | reduction of MDA level vs baseline control without stress (MDA (malondialdehyde); Wistar rats, exposure to Ns): 6.0% | MDA content vs control (MDA (malondialdehyde); [4]): −6.0 * % | Optical density of the samples vs control (MDA (malondialdehyde); [4]): −6.0 * % | km % vs outbred group (MDA (malondialdehyde); Wistar rats, three-time Ns + 200 mg/kg): −33.3% * | km % vs experimental control (saline) (MDA (malondialdehyde); outbred rats, 200 mg/kg): −73.0% and −73.0 *** % | increase of species reserve of stability (intra-species Kt) in acute Ns-state (MDA (malondialdehyde); rats, during treatment): 12.5% | activation in August relative to Wistar strain (MDA (malondialdehyde); single injection, no stress): 2.9 times | Body weight (%) ([1]; 25 mg/kg): −14.0% | reduction of body weight relative to control ([1]; 25 mg/kg/day i.g. 1 month): 14% | Body weight (%) ([1]; 50 mg/kg): −25.0 * % | reduction of body weight relative to control ([1]; 50 mg/kg/day i.g. 1 month): 25% | Body weight (%) ([1]; 100 mg/kg): −33.3 * % | reduction of body weight relative to control ([1]; 100 mg/kg/day i.g. 1 month): 33.3% | Body weight (%) ([1]; 200 mg/kg): −35.0 * % | reduction of body weight relative to control ([1]; 200 mg/kg/day i.g. 1 month): 35% | Body weight (%) ([1]; 300 mg/kg): −32.0 * % | reduction of body weight relative to control ([1]; 300 mg/kg/day i.g. 1 month): 32% | subjects with mild morning facial swelling (women; cream applied less than two hours before bedtime): 18.0% | Efficacy in % relative to baseline control (skin aging) (women; 50 mg + “Gerantol” cream 100 g): 132.0 * % | Efficacy in % (skin aging) (women; 50 mg + “Lux” cream 100 g): 167.0 * % | Efficacy expressed in % (age-related changes of blood vessels and joints) (women; 100 mg + 100 g of cream base): 211* % | Efficacy in % relative to baseline control (skin aging) (women; 100 mg + “Gerantol” cream 100 g): 205.0 * % | Efficacy in % (skin aging) (women; 100 mg + “Lux” cream 100 g): 210.0 * % | Efficacy expressed in % (skin aging) (women; 100 mg + “Vecher” cream 100 g): 317* % | Efficacy expressed in % (age-related changes of blood vessels and joints) (women; 200 mg + 100 g of cream base): 219* % | Efficacy in % relative to baseline control (skin aging) (women; 200 mg + “Gerantol” cream 100 g): 251.0 * % | Efficacy in % (skin aging) (women; 200 mg + “Lux” cream 100 g): 240.0 * % | Efficacy expressed in % (skin aging) (women; 200 mg + “Vecher” cream 100 g): 280* % | Efficacy expressed in % (age-related changes of blood vessels and joints) (women; 300 mg + 100 g of cream base): 174* % | Efficacy in % relative to baseline control (skin aging) (women; 300 mg + “Gerantol” cream 100 g): 277.0 * % | Efficacy in % (skin aging) (women; 300 mg + “Lux” cream 100 g): 280.0 * % | Efficacy expressed in % (skin aging) (women; 300 mg + “Vecher” cream 100 g): 249* % | Efficacy in % (skin aging) (women; aqueous solution 0.1%): 212.0* % | Efficacy in % (skin aging) (women; cream, 50 mg per 100 g of the base): 140.0 * % | Efficacy in % (skin aging) (women; cream, 100 mg per 100 g of the base): 180.0 * % | Efficacy in % (skin aging) (women; cream, 200 mg per 100 g of the base): 187.0 * % | Efficacy in % (skin aging) (women; cream, 300 mg per 100 g of the base): 200.0 * % | decrease of catalepsy severity vs control (mice; 180 minutes): decreased threefold | decrease of catalepsy severity vs control (mice; after the 60 min point): 2.6 times | Catalepsy (mice; haloperidol 0.5 mg/kg + 50 mg/kg i.p., 120 min): 8.5 ± 3.5 s | Catalepsy (mice; haloperidol 0.5 mg/kg + 50 mg/kg i.p., 180 min, listed as Phenotropil): 4.8 s and 4.8 ± 2.1 s | Catalepsy (mice; haloperidol 0.5 mg/kg + 100 mg/kg i.p., 120 min): 2.0 ± 1.0 s | Catalepsy (mice; haloperidol 0.5 mg/kg + 100 mg/kg i.p., 180 min): 0.0 ± 0.0 s | Catalepsy (mice; haloperidol 0.5 mg/kg + 300 mg/kg i.p., 60 min): 6.6 ± 1.9 s | Catalepsy (mice; haloperidol 0.5 mg/kg + 300 mg/kg i.p., 120 min): 10.6 ± 4.5 s | Catalepsy (mice; haloperidol 0.5 mg/kg + 300 mg/kg i.p., 180 min): 21.4 ± 8.4 s | serum Ca ([2]; 4-week administration 50 mg/kg): 4.21 ± 0.23 mEq/l | serum K ([2]; 4-week administration 50 mg/kg): 3.15 ± 0.15 mEq/l | serum Na ([2]; 4-week administration 50 mg/kg): 127.3 ± 2.71 mEq/l | serum Ca [2, 5]: 4.69 ± 0.24 mEq/l | serum K [2, 5]: 3.44 ± 0.20 mEq/l | serum Na [2, 5]: 125.7 ± 3.43 mEq/l
